Laboratory results: US20110212101A1, “MATERIALS AND METHODS FOR EXPLOITING SYNTHETIC LETHALITY IN MISMATCH REPAIR-DEFICIENT CANCERS” (priority 2007, published 2011)
Where a SMILES comes first, the peptide text is derived from it. The star is where a group is joined. Cbz = O=C(OCc1ccccc1)*

How the values were obtained:
[1] = target: POLB (Rattus norvegicus, UniProt P06766); conditions: read-out: IC50 as POLB inhibitor; cited from earlier work
[2] = tested on: POLG; conditions: cited from earlier work; for inhibition of POLG activity in vitro: extent of inhibition varies widely
[3] = tested on: Hec59 and Hec59+chr2 cells; experiment: High-throughput compound inhibitor screen, CellTitre Glo viability; assay type: cell-based, human; conditions: library of 1120 compounds; viability after six days
Procedure: (§1) Compound libraries were purchased from Prestwick Chemicals (Saffron Walden, Essex, UK). Validation experiments were carried out with Methotrexate (Biomol International L.P.) and Menadione and Partenolide (Prestwick chemicals). Cells were plated in 96-well plates. After 12 hr incubation, cells were exposed to compound or equimolar DMSO and re-treated every 48 hrs. Cell viability was measured six days later using the CellTitre Glo assay (Promega) according to the manufacturer's instructions. Validation of hit compounds was performed by clonogenic assays. Exponentially growing cells were seeded at various densities in six-well plates. Cells were treated with increasing concentrations of the compound. Cell medium was replaced every four days. After ten to fourteen days, cells were fixed in methanol, stained with crystal violet, and counted. The plating efficiencies were calculated as the number of colonies divided by the number of cells plated for each compound treatment. The surviving fraction (SF) for a given sample was calculated as the plating efficiencies for each compound treated cells divided by the plating efficiencies of DMSO treated cells.

[4] = tested on: Hec59 cells (MSH2 deficient); experiment: 8-OHdG ELISA on isolated DNA; assay type: cell-based, human; conditions: compound treatment for three days
Procedure: (§2) Genomic DNA was extracted using the Qiamp DNA isolation kit (Qiagen) and digested with nuclease P1. Mitochondrial and nuclear DNA was extracted using the mitochondrial DNA isolation kit (ab65321, Abcam). A commercially available ELISA kit from Cell Biolabs was used to determine levels of 8-OHdG in isolated DNA. The assays were performed according to the manufacturer's instructions. The 8-OHdG standard (0.078-20 ng/ml) or 10 μg DNA from siRNA transfected cells was incubated with a 8-OHdG monoclonal antibody in a microtiter plate precoated with 8-OHdG.
(§3) Addition of […] to replicate samples was followed by measurement of absorbance at 450 nm. Standard curves were calculated for all reactions with serial dilutions of 8-OHdG standard to calculate reaction efficiency. Samples were assayed in triplicate.

[5] = tested on: Hec59+chr2 cells (MSH2 proficient); experiment: 8-OHdG ELISA on isolated DNA; assay type: cell-based, human; conditions: compound treatment for three days
Procedure: as §2, §3

[6] = tested on: reactive oxygen species (ROS); conditions: VK3 at 30 μM; leading to apoptosis; cited from earlier work
[7] = tested on: Hec59 and Hec59+chr2 cells; experiment: Clonogenic assay with compounds; assay type: cell-based, human; conditions: folic acid added in concert with methotrexate; Hec59 MSH2 deficient cells; 14 days
Procedure: as §1

[8] = tested on: HeLa cells; experiment: Clonogenic survival with methotrexate after MSH2 siRNA; assay type: cell-based, human; conditions: cells transfected with MSH2 siRNA vs siControl; continuous exposure 14 days
Procedure: (§4) For clonogenic assays, exponentially growing cells were seeded at various densities in six-well plates. Cells were transfected with siRNA as before. Cell medium was replaced every four days. After ten to fourteen days, cells were fixed in methanol, stained with crystal violet, and counted. The plating efficiencies were calculated as the number of colonies divided by the number of cells plated for each siRNA transfection. The surviving fraction (SF) for a given sample was calculated as the plating efficiencies for each siRNA transfection divided by the plating efficiencies of siControl siRNA transfected cells. All transfections were carried out in triplicate.
(§5) Compound libraries were purchased from Prestwick Chemicals (Saffron Walden, Essex, UK). […] Cell viability was measured six days later using the CellTitre Glo assay (Promega) according to the manufacturer's instructions. […] After ten to fourteen days, cells were fixed in methanol, stained with crystal violet, and counted. The plating efficiencies were calculated as the number of colonies divided by the number of cells plated for each compound treatment. The surviving fraction (SF) for a given sample was calculated as the plating efficiencies for each compound treated cells divided by the plating efficiencies of DMSO treated cells.

[9] = tested on: Hec59+chr2 cells; experiment: as above; assay type: cell-based, human; conditions: cells transfected with MSH2 siRNA vs siControl; continuous exposure 14 days
Procedure: as §4, §5

[10] = tested on: POLβ expression in Hec59 and Hec59+chr2 cells; experiment: Western blot for POLβ expression; assay type: cell-based, human; conditions: 72 hours after treatment with methotrexate
Procedure: (§6) Cell pellets were lysed in 20 mmol/L Tris (pH 8), 200 mmol/L NaCl, 1 mmol/L EDTA, 0.5% (v/v) NP40, 10% (v/v) glycerol, and protease inhibitors. Immunoprecipitations were performed by incubating Protein G beads (Sigma), 1-2 mg of precleared cell lysate and anti-POLB antibody (ab3181, Abcam; dilution 1:100) overnight at 4° C. Beads were subsequently washed three times in cold lysis buffer, after which 2× loading buffer was added and the samples were boiled for 5 min before SDS-PAGE. For western blotting, lysates were electrophoresed on Novex precast gels (Invitrogen) and immunoblotted using the following antibodies: anti-MSH2 (Ab-1, Calbiochem), anti-POLB (ab3181, Abcam), anti-MLH1 (ab9144, Abcam), anti-POLG (Novus), anti-PCNA (SC7907, Santa-Cruz), anti-Cytochrome C (Pharmagen) anti-OGG1 (NB100-106, Novus biologicals), anti-CHIP (ab39559, Abcam) and anti-β-tubulin, (T4026, Sigma). This was followed by incubation with anti-IgG-horseradish peroxidase and chemiluminescent detection (SuperSignal West Pico Chemiluminescent Substrate, Pierce). Immunoblotting for (1-tubulin was used as a loading control.
Transfected cell pellets were lysed in 20 mmol/L Tris (pH 8), 200 mmol/L NaCl, 1 mmol/LEDTA, 0.5% (v/v) NP40, 10% (v/v) glycerol, and protease inhibitors. […]

[11] = tested on: POLB mRNA in MSH2 deficient and proficient cells; experiment: POLB mRNA by qRT-PCR after H2O2; assay type: cell-based, human; conditions: 100 μM H202, RNA isolated after 15 mins
Procedure: Quantification of RNA expression was measured by real time RT-PCR. Total RNA was extracted from cells with Trizol (Invitrogen) according to manufacturer's instructions. Total RNA from patient biopsies was purified from 10 μm sections using the High Pure RNA Paraffin Kit (Roche Diagnostic Ltd). cDNA was synthesized using Omniscript Reverse Transcriptase System for RT-PCR (Qiagen) with oligo dT as per manufacturer's instructions. Assay-on-Demand primer/probe sets were purchased from Applied Biosystems (Foster City, Calif.). Real-Time qPCR was performed on the […] Fast Real-Time PCR System (Applied Biosystems), with endogenous control β-Actin. Standard curves were calculated for all reactions with serial dilutions of control Hec59+chr2 cells to calculate reaction efficiency. Gene expression was calculated relative to expression of β-Actin endogenous control, and adjusted relative to expression in control Hec59+chr2 cells. Samples were quantified in triplicate.

[12] = tested on: OGG1 expression in HeLa cells; experiment: Western blot for OGG1 expression; assay type: cell-based, human; conditions: POLB silenced cells; 50 μM MG132, lysates 18 hours later
Procedure: as §6

## C/C(=C/CC[C@H](C)[C@@H]1CC[C@]2(C)C3=CC[C@H]4C(C)(C)C(=O)CC[C@]4(C)[C@H]3CC[C@@]12C)C(=O)O [masticadienonic acid]
[1]
  IC50: 8 µM

## Nc1ncnc2c1ncn2CCOCP(=O)(O)OP(=O)(O)OP(=O)(O)O [adefovir-diphosphate]
[2]
  inhibition of POLG activity in vitro: inhibit POLG activity in vitro

## CC1=CC(=O)c2ccccc2C1=O [Menadione, 2-methylnaphthalene-1,4-dione]
[3]
  selectivity for MSH2 deficient cells in high-throughput screen: show selectivity for MSH2 deficient cells
[4]
  8-OHdG accumulation: increased significantly
[5]
  8-OHdG accumulation: did not increase
[2]; VK3 at 30 μM
  inhibition of POLG: more than 80%
[6]
  reactive oxygen species (ROS): significant increase

## Cc1cn([C@H]2C[C@H](N=[N+]=[N-])[C@@H](COP(=O)(O)OP(=O)(O)OP(=O)(O)O)O2)c(=O)[nH]c1=O [zidovudine-TP]
[2]
  inhibition of POLG activity in vitro: inhibit POLG activity in vitro

## Nc1ccn([C@@H]2CS[C@H](COP(=O)(O)OP(=O)(O)OP(=O)(O)O)O2)c(=O)n1 [Lamivudine-TP]
[2]
  inhibition of POLG activity in vitro: inhibit POLG activity in vitro

## Nc1nc2ncc(CNc3ccc(C(=O)N[C@@H](CCC(=O)O)C(=O)O)cc3)nc2c(=O)[nH]1 [folic acid]
[7]
  rescue of methotrexate lethality: in large part rescues the lethal phenotype

## CN(Cc1cnc2nc(N)nc(N)c2n1)c1ccc(C(=O)N[C@@H](CCC(=O)O)C(=O)O)cc1 [Methotrexate, (S)-2-(4-(((2,4-diaminopteridin-6-yl)methyl)methylamino)benzamido)pentanedioic acid]
[3]
  selectivity for MSH2 deficient cells in high-throughput screen: show selectivity for MSH2 deficient cells
[8]
  synthetic lethality with methotrexate (survival): synthetically lethal
[9]
  synthetic lethality with methotrexate (survival): synthetically lethal
[4]
  8-OHdG accumulation: increased significantly
[5]
  8-OHdG accumulation: did not increase
[10]
  POLβ expression: reduction of POLβ expression

## Nc1ccn([C@H]2CC[C@@H](COP(=O)(O)OP(=O)(O)OP(=O)(O)O)O2)c(=O)n1 [zalcitabine-TP]
[2]
  inhibition of POLG activity in vitro: inhibit POLG activity in vitro

## OO [H202]
[11]
  POLB mRNA levels: induced

## CC(Cn1cnc2c(N)ncnc21)OCP(=O)(O)OP(=O)(O)OP(=O)(O)O (stereo in doubt) [tenofovir-DP]
[2]
  inhibition of POLG activity in vitro: inhibit POLG activity in vitro

## CC(C)C[C@@H](C=O)NC(=O)[C@H](CC(C)C)NC(=O)[C@H](CC(C)C)NC(=O)OCc1ccccc1 [MG132] (Cbz-Leu-Leu-Leu-aldehyde)
[12]
  OGG1 expression: restored the expression of OGG1
